Experimental data: publication PMC4503722, “Novel Phenotypic Outcomes Identified for a Public Collection of Approved Drugs from a Publicly Accessible Panel of Assays” (PLoS ONE, 2015)
Read-outs that look alike come from different tables or passages of the source.

Legend:
INS-1E cells = experiment: cells; type: cell-based, rat
[1] = tested on: ECFC/ADSC co-culture cell nuclei number
[2] = tested on: endothelial tube formation in co-cultures of ECFCs and ADSCs treated with VEGF; experiment: cells; type: cell-based, human
HeLa cells = experiment: cells; type: cell-based; settings: for Hela CellCycMod PI 2N IC50/EC50: assay number 14; for Hela CellCycMod PI S Phase IC50/EC50: assay number 15; for Hela CellCycMod PI 4N IC50/EC50: assay number 16; for Hela CellCycMod PI MI IC50/EC50: assay number 17; for Hela CellCycMod PI Cell Number IC50/EC50: assay number 18
SW480 = experiment: cells; type: cell-based; settings: assay number 24
SNU-C1 = experiment: cells; type: cell-based; settings: assay number 30
RKO = experiment: cells; type: cell-based; settings: assay number 29
HCT116 = experiment: cells; type: cell-based; settings: assay number 25; basal
DLD-1 = experiment: cells; type: cell-based; settings: assay number 23
[3] = tested on: HCT116 cells treated with a GSK3β inhibitor; experiment: cells; type: cell-based; settings: assay number 26; GSK3b inhibitor pretreated
Colo320 = experiment: cells; type: cell-based; settings: assay number 27
HT-29 = experiment: cells; type: cell-based; settings: assay number 28
[4] = tested on: nuclear β-catenin in C2C12 cells; experiment: cells; type: cell-based
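For 5mMGluc INS1E SecretionMod IC50/EC50 in this document: secreted insulin quantified by homogeneous immunoassay.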
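For IC50/EC50, 5mMGluc INS1E SecretionMod (assay number 8) in this document: secreted insulin quantified by homogeneous immunoassay.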

## CN1C(=O)CC[C@H]1c1cccnc1 [NCGC00093739-13]
INS-1E cells; assay number 8, 5 mM glucose
  5mMGluc_INS1E SecretionMod IC50/EC50: > 33.33 µM

## COCCCOc1ccnc(C[S+]([O-])c2nc3ccccc3[n-]2)c1C.[Na+] (stereo not drawn) [NCGC00159518-05]
INS-1E cells; 5 mM glucose
  IC50/EC50, 5mMGluc_INS1E SecretionMod (assay number 8): > 33.33 µM

## CN(C)CCN1C(=O)c2ccccc2N(C)c2ccccc21 [NCGC00160395-04]
INS-1E cells; 5 mM glucose
  IC50/EC50, 5mMGluc_INS1E SecretionMod (assay number 8): > 33.33 µM

## CN1CCN(CCC(=O)N2c3ccccc3Sc3ccc(C(F)(F)F)cc32)CC1 [NCGC00160483-02]
INS-1E cells; assay number 8, 5 mM glucose
  5mMGluc_INS1E SecretionMod IC50/EC50: > 11.11 µM

## CCCC(CCC)C(=O)O [NCGC00162288-07]
INS-1E cells; 5 mM glucose
  IC50/EC50, 5mMGluc_INS1E SecretionMod (assay number 8): > 33.33 µM

## O=C(CCN1CCN2CCCC2C1)N1c2ccccc2Sc2ccc(Cl)cc21 (stereo not drawn) [NCGC00164539-02]
INS-1E cells; assay number 8, 5 mM glucose
  5mMGluc_INS1E SecretionMod IC50/EC50: 16.7552 µM

## CCCN1CCCC[C@H]1C(=O)Nc1c(C)cccc1C [NCGC00164597-02]
INS-1E cells; assay number 8, 5 mM glucose
  5mMGluc_INS1E SecretionMod IC50/EC50: > 33.33 µM

## CCN(CC)CCNC(=O)c1c(C)[nH]c(/C=C2\C(=O)Nc3ccc(F)cc32)c1C [NCGC00164631-05]
[1]
  VEGF_ADSC\ECFC Angio Hoechst NucArea IC50/EC50: > 10 µM
[2]
  VEGF_ADSC\ECFC Angio CD31 TubeArea IC50/EC50: 0.0254 µM
INS-1E cells; assay number 8, 5 mM glucose
  5mMGluc_INS1E SecretionMod IC50/EC50: > 33.33 µM
HeLa cells
  Hela CellCycMod PI 2N IC50/EC50: > 10 µM
  Hela CellCycMod PI S Phase IC50/EC50: > 10 µM
  Hela CellCycMod PI 4N IC50/EC50: > 10 µM
  Hela CellCycMod PI MI IC50/EC50: 3.8121 µM
  Hela CellCycMod PI Cell Number IC50/EC50: 1.2784 µM

## Cc1cc(-n2nc3ccc(Cl)cc3n2)c(O)c(C(C)(C)C)c1 [NCGC00166260-03]
INS-1E cells; assay number 8, 5 mM glucose
  5mMGluc_INS1E SecretionMod IC50/EC50: > 33.33 µM

## CCN1CCCC(OC(=O)C(c2ccccc2)c2ccccc2)C1 (stereo not drawn) [NCGC00178395-04]
INS-1E cells; assay number 8, 5 mM glucose
  5mMGluc_INS1E SecretionMod IC50/EC50: 18.2267 µM

## C[C@@H](CN(C)C)CN1c2ccccc2Sc2ccccc21.C[C@@H](CN(C)C)CN1c2ccccc2Sc2ccccc21.O=C(O)C(O)C(O)C(=O)O [NCGC00178737-05]
INS-1E cells; 5 mM glucose
  IC50/EC50, 5mMGluc_INS1E SecretionMod (assay number 8): > 33.33 µM

## CCN(CC)C(C)CN1c2ccccc2Sc2ccccc21.Cl (stereo not drawn) [NCGC00178860-06]
INS-1E cells; assay number 8, 5 mM glucose
  5mMGluc_INS1E SecretionMod IC50/EC50: > 33.33 µM

## CC(C(O)c1ccccc1)N(C)CCOC(c1ccccc1)c1ccccc1 (stereo not drawn) [NCGC00181913-02]
INS-1E cells; assay number 8, 5 mM glucose
  5mMGluc_INS1E SecretionMod IC50/EC50: > 33.33 µM

## O=[N+]([O-])c1ccc(Oc2ccc(N=C=S)cc2)cc1 [NCGC00182049-02]
SW480; basal
  Basal_Viability ATP SW480 IC50/EC50: 1.634 µM
SNU-C1; basal
  Basal_Viability ATP SNU-C1 IC50/EC50: 4.3298 µM
RKO; basal
  Basal_Viability ATP RKO IC50/EC50: 2.341 µM
[1]
  VEGF_ADSC\ECFC Angio Hoechst NucArea IC50/EC50: > 10 µM
[2]
  VEGF_ADSC\ECFC Angio CD31 TubeArea IC50/EC50: 3.7244 µM
HCT116
  Basal_Viability ATP HCT116 IC50/EC50: 2.772 µM
DLD-1; basal
  Basal_Viability ATP DLD-1 IC50/EC50: 2.102 µM
[3]
  GSK3b inh pretreated_Viability ATP HCT116 IC50/EC50: 1.472 µM
Colo320; basal
  Basal_Viability ATP Colo 320 IC50/EC50: 1.465 µM
HT-29; basal
  Basal_Viability ATP HT-29 IC50/EC50: 1.0654 µM
HeLa cells
  Hela CellCycMod PI 2N IC50/EC50: > 10 µM
  Hela CellCycMod PI S Phase IC50/EC50: > 10 µM
  Hela CellCycMod PI 4N IC50/EC50: > 10 µM
  Hela CellCycMod PI MI IC50/EC50: > 10 µM
  Hela CellCycMod PI Cell Number IC50/EC50: > 10 µM

## CCO[C@H](Cc1ccc(OCCc2ccc(OS(C)(=O)=O)cc2)cc1)C(=O)O [NCGC00182082-03]
INS-1E cells; assay number 8, 5 mM glucose
  5mMGluc_INS1E SecretionMod IC50/EC50: > 33.33 µM

## CN1CCC(N(Cc2cccs2)c2ccccc2)CC1 [NCGC00183847-01]
INS-1E cells
  5mMGluc_INS1E SecretionMod IC50/EC50: 20.3958 µM

## Cc1ccc(-n2nc(C(C)(C)C)cc2NC(=O)Nc2ccc(OCCN3CCOCC3)c3ccccc23)cc1 [NCGC00241104-02]
INS-1E cells; assay number 8, 5 mM glucose
  5mMGluc_INS1E SecretionMod IC50/EC50: > 33.33 µM

## CCCCN(CCCC)C(C(N)=O)c1ccc(OC)cc1 (stereo not drawn) [NCGC00261978-01]
INS-1E cells; assay number 8, 5 mM glucose
  5mMGluc_INS1E SecretionMod IC50/EC50: > 33.33 µM

## CCC(CN)=C(c1ccccc1)c1ccccc1.Cl [NCGC00262942-01]
INS-1E cells; assay number 8, 5 mM glucose
  5mMGluc_INS1E SecretionMod IC50/EC50: 10.7785 µM

## Cc1ccc(O)c([C@H](CCN(C(C)C)C(C)C)c2ccccc2)c1 [NCGC00263557-01]
INS-1E cells; assay number 8, 5 mM glucose
  5mMGluc_INS1E SecretionMod IC50/EC50: > 33.33 µM

## Cl.O[C@@H](CNC[C@H](O)[C@H]1CCc2cc(F)ccc2O1)[C@@H]1CCc2cc(F)ccc2O1 [NCGC00263579-01]
SW480
  Basal_Viability ATP SW480 IC50/EC50: 3.6015 µM
SNU-C1
  Basal_Viability ATP SNU-C1 IC50/EC50: 5.0932 µM
RKO
  Basal_Viability ATP RKO IC50/EC50: 3.2799 µM
[1]
  VEGF_ADSC\ECFC Angio Hoechst NucArea IC50/EC50: > 10 µM
[2]
  VEGF_ADSC\ECFC Angio CD31 TubeArea IC50/EC50: > 10 µM
HCT116
  Basal_Viability ATP HCT116 IC50/EC50: 6.4812 µM
DLD-1
  Basal_Viability ATP DLD-1 IC50/EC50: 15.2632 µM
[3]
  GSK3b inh pretreated_Viability ATP HCT116 IC50/EC50: 2.3971 µM
Colo320
  Basal_Viability ATP Colo 320 IC50/EC50: > 20 µM
HT-29
  Basal_Viability ATP HT-29 IC50/EC50: 4.5046 µM
HeLa cells
  Hela CellCycMod PI 2N IC50/EC50: > 10 µM
  Hela CellCycMod PI S Phase IC50/EC50: > 10 µM
  Hela CellCycMod PI 4N IC50/EC50: > 10 µM
  Hela CellCycMod PI MI IC50/EC50: > 10 µM
  Hela CellCycMod PI Cell Number IC50/EC50: 5.565 µM

## CNC(=O)c1cc(Oc2ccc(NC(=O)Nc3ccc(Cl)c(C(F)(F)F)c3)cc2)ccn1 [Sorafenib, reference compound]
[4]
  activity in the Wnt potentiation module (in words): None of these agents, however, possessed appreciable activity
